In patent US20040142882A1, “Use of glycyrrhizin and its derivatives as RANTES inducers” (priority 2002, published 2004):

Columns and labels:
[1] = tested on: peripheral mononuclear cells from AIDS patients; experiment: RANTES induction in peripheral mononuclear cells from AIDS patients; format: cell-based, human; conditions: 100 μg/ml, 24 hours, cells from 3 AIDS patients, FIG. 4
Procedure: Peripheral blood was collected from 3 AIDS patients (CD4 count: 215-418 cells/μl, viral load: 80,000-370,000 copies/ml) and peripheral mononuclear cells were isolated with Ficoll-Hypaque. 1×10^6 cells/ml of peripheral mononuclear cells were stimulated for 24 hours with 100 μg/ml of glycyrrhizin. The amount of RANTES present in the culture supernatant was measured with the Human RANTES/CCL5 Quantikine Immunoassay Kit (R&D Systems). Furthermore, the control in the drawing indicates the amount of RANTES in culture supernatant of peripheral mononuclear cells not treated with glycyrrhizin.

IL-12Rβ2 mRNA = experiment: Th1 cell induction: IL-12Rβ2 mRNA expression by RT-PCR in peripheral mononuclear cells; format: cell-based, human; conditions: 7 days, FIG. 5
Procedure: Peripheral blood was collected from healthy subjects and peripheral mononuclear cells were isolated with Ficoll-Hypaque. 1×10^6 cells/ml of peripheral mononuclear cells were cultured for 7 days in medium containing IL-2 (10 U/ml) and anti-IFN-γ monoclonal antibody (10 μg/ml) in the presence of 100 μg/ml of glycyrrhizin, or glycyrrhizin and anti-RANTES monoclonal antibody (10 μg/ml). After culturing, RNA was extracted from the cells, and the expression of IL-12Rβ2 mRNA, a marker for Th1 cells, was measured by RT-PCR. […] In other words, IFN-γ is not involved in the reaction used in this experiment. Furthermore, the control in the drawing indicates the degree of expression of IL-12Rβ2 mRNA in mononuclear cells when cultured without the addition of glycyrrhizin.

[2] = tested on: mononuclear cells originated from mouse spleen; experiment: RANTES induction in mononuclear cells originated from mouse spleen; format: cell-based
Source text: The above results were able to be confirmed not only in humans, but also in experiments using mononuclear cells originated from mouse spleen.

HIV [3] = conditions: 150 to 225 mg (6 to 9 tablets) per day, asymptomatic carriers (AC); cited from earlier work
[4] = tested on: septicemia induced by cecal ligation and puncture (CLP); experiment: Septicemia model (cecal ligation and puncture) in IFN-γ knockout mice, survival; format: in vivo; conditions: 7 days
Procedure: Glycyrrhizin was administered intraperitoneally to IFN-γ knockout mice at 20 mg/kg, and septicemia was induced by cecal ligation and puncture (CLP) 2 hours later.
Glycyrrhizin was administered intraperitoneally to IFN-γ knockout mice at 20 mg/kg, and septicemia was induced by CLP 2 hours later. 10 μg/ml of anti-RANTES monoclonal antibody were administered subcutaneously 2 hours before, 12 hours after and 24 hours after administration of glycyrrhizin, while an equal amount of Ig was administered subcutaneously to a control group.

[5] = tested on: methicillin-resistant Staphylococcus aureus (MRSA); experiment: MRSA infection in SCIDbgMN mice inoculated with spleen mononuclear cells of IFN-γ knockout mice, survival; format: in vivo; conditions: 10 days
Procedure: Spleen mononuclear cells originated from IFN-γ knockout mice (5×10^6 cells/ml) were inoculated into SCIDbgMN mice (SCID-beige mice deficient in macrophage and neutrophil functions). A 20 mg/kg dose of glycyrrhizin was administered intraperitoneally immediately after inoculation. 2 hours later, the animals were infected through the tail vein with methicillin-resistant Staphylococcus aureus (MRSA) at a level of 5 LD50. Furthermore, a control group was infected with an equal amount of MRSA following administration of physiological saline.
Spleen mononuclear cells originated from IFN-γ knockout mice (5×10^6 cells/ml) were inoculated into SCIDbgMN mice. A 20 mg/kg dose of glycyrrhizin was administered intraperitoneally immediately after inoculation. 2 hours later, the animals were infected through the tail vein with methicillin-resistant Staphylococcus aureus (MRSA) at a level of 5 LD50. 10 μg/ml of anti-RANTES monoclonal antibody was administered subcutaneously 2 hours before, 12 hours after and 24 hours after administration of glycyrrhizin, while an equal amount of Ig was administered subcutaneously to a control group.

[6] = tested on: peripheral mononuclear cells; experiment: RANTES induction in peripheral mononuclear cells from healthy individuals (Quantikine immunoassay of culture supernatant); format: cell-based, human
Procedure: Peripheral blood was collected from healthy individuals and peripheral mononuclear cells were isolated with Ficoll-Hypaque. RPMI1640 medium containing 10% FCS and antibiotics (penicillin and streptomycin) was used for culturing. After stimulating 1×10^6 cells/ml of peripheral mononuclear cells with 100 μg/ml of sodium olean-3β-hydroxy-11-oxo-12-ene-30-ate, disodium olean-9(11),12-diene-3β,30-diol-3β,30-O-dihemiphthalate, disodium olean-11,13 (18)-diene-3β,30-diol-3β,30-O-dihemiphthalate, disodium olean-3β-hydroxy-11,13(18)-diene-30-ate-3β-O-hemiphthalate, disodium olean-3β-hydroxy-11-oxo-12-ene-30-ate-3β-O-hemiphthalate, or monoammonium glycyrrhizinate for 24 hours, the amount of RANTES in the culture supernatant was measured with a Human RANTES/CCL5 Quantikine Immunoassay Kit (R&D Systems). Furthermore, the control in the drawing indicates the amount of RANTES in culture supernatant when peripheral mononuclear cells were treated with medium only.
Peripheral blood was collected from healthy subjects and peripheral mononuclear cells were isolated with Ficoll-Hypaque. 1×10^6 cells/ml of peripheral mononuclear cells were stimulated with 100 μg/ml of monoammonium glycyrrhizinate (monoammonium glycyrrhizinate will hereinafter be referred to as glycyrrhizin). Taking the time at which glycyrrhizin was added to be 0 hours, the amount of RANTES present in the culture supernatant was measured with the Human RANTES/CCL5 Quantikine Immunoassay Kit (R&D Systems) 12, 24, 48 and 72 hours later. Furthermore, the control in the drawing indicates the amount of RANTES in culture supernatant of peripheral mononuclear cells not treated with glycyrrhizin.
Peripheral blood was collected from healthy subjects and peripheral mononuclear cells were isolated with Ficoll-Hypaque. 1×10^6 cells/ml of peripheral mononuclear cells were stimulated for 24 hours with 0.1-100 μg/ml of glycyrrhizin. The amount of RANTES present in the culture supernatant was measured with the Human RANTES/CCL5 Quantikine Immunoassay Kit (R&D Systems).

HIV [7] = conditions: reported in recent years; cited from earlier work

Row | SMILES | RANTES induction [1] | expression of IL-12Rβ2 mRNA (Th1 marker) with anti-RANTES monoclonal antibody (IL-12Rβ2 mRNA; 100 μg/ml glycyrrhizin plus anti-RANTES monoclonal antibody 10 μg/ml) | expression of IL-12Rβ2 mRNA (Th1 marker) (IL-12Rβ2 mRNA; 100 μg/ml, with IL-2 and anti-IFN-γ monoclonal antibody) | RANTES induction confirmed in mouse cells [2] | survival without the onset of AIDS (HIV [3]) | mortality rate after septicemic infection with anti-RANTES monoclonal antibody ([4]; 20 mg/kg i.p. plus anti-RANTES monoclonal antibody subcutaneously, FIG. 7) | survival rate after septicemic infection ([4]; 20 mg/kg intraperitoneally 2 hours before CLP, FIG. 6) | mortality rate after MRSA infection with anti-RANTES monoclonal antibody ([5]; 20 mg/kg i.p. plus anti-RANTES monoclonal antibody subcutaneously, FIG. 9) | survival rate after MRSA infection ([5]; 20 mg/kg intraperitoneally 2 hours before MRSA 5 LD50 via tail vein, FIG. 8) | amount of RANTES in the culture supernatant ([6]; 100 μg/ml compound, 24 hours, 1×10^6 cells/ml, FIG. 1) | production of RANTES over time ([6]; 100 μg/ml, 12, 24, 48 and 72 hours, FIG. 2) | RANTES induction versus concentration ([6]; 0.1-100 μg/ml tested, 24 hours, dose dependent within 1-100 μg/ml, FIG. 3) | intracellular growth of HIV (HIV [7]) | amount of RANTES induced compared with monoammonium glycyrrhizinate ([6]; 100 μg/ml compound, 24 hours, FIG. 1)
1 | CC1(C)[C@@H](O[C@H]2O[C@H](C(=O)O)[C@@H](O)[C@H](O)[C@H]2O[C@@H]2O[C@H](C(=O)O)[C@@H](O)[C@H](O)[C@H]2O)CC[C@]2(C)[C@H]3C(=O)C=C4[C@@H]5C[C@@](C)(C(=O)O)CC[C@]5(C)CC[C@@]4(C)[C@]3(C)CC[C@@H]12.N [GR, monoammonium glycyrrhizinate] | RANTES was induced | no longer demonstrated its expression | increase in the expression of IL-12Rβ2 mRNA | confirmed | ≥ 10 years | increased to the same level as the control group | 80% | increased to the same level as the control group | 75% | 3 ng/mL | increased with the passage of culturing time | dose dependent manner | inhibits the intracellular growth of HIV | 
2 | CC1(COC(=O)c2ccccc2C(=O)[O-])CCC2(C)CCC3(C)C(=C2C1)C=CC1C2(C)CCC(OC(=O)c4ccccc4C(=O)[O-])C(C)(C)C2CCC13C.[Na+].[Na+] (stereo not drawn) [MUN-014, disodium olean-11,13(18)-diene-3β,30-diol-3β,30-O-dihemiphthalate] |  |  |  |  |  |  |  |  |  |  |  |  |  | nearly equal amount
